Data as given in ChEMBL document CHEMBL1201862, “PubChem BioAssay data set” (2004).
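Values below derive from 48-hour exposures of cells grown in 96-well plates, with endpoints linearly interpolated between the two concentrations bracketing the appropriate inhibition level. GI50 is the concentration that inhibits growth by half.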 The source made the active and inactive calls. Rule as the data show it: active = GI50 up to about 1.1 µM and inactive = higher. Starred links: 1 amine or outer side, 2 acyl side, 3 side chain; linkers in the order of their positions; H or OH if unused. Positions of bridges follow the written chain, without caps; N, C: chain ends. Non-standard residues stand in square brackets, D forms with d. Residues, ends and D or L forms follow the SMILES beside them. ξ: configuration not given here. X11 = CCC(C)C(N[*:1])C(O)CC(=O)O[C@H](C(=O)C(C)C(=O)[*:2])C(C)C; X10 = O=C([C@@H]1CC(O)CN1[*:1])[*:2]; NMeY = CN[C@@H](Cc1ccc(O)cc1)C(=O)O; ξNMeL = CNC(CC(C)C)C(=O)O; ξT = CC(O)C(N)C(=O)O

What was measured:
Assay in all cases: inhibition of tumour cell growth, NCI panel, 48 h
[1] = test system: OVCAR-4
[2] = test system: HL-60
[3] = test system: Malme-3M
[4] = test system: RXF 393
[5] = test system: ACHN
[6] = test system: LOX IMVI
[7] = test system: RPMI-8226
[8] = test system: NCI-H522
[9] = test system: U-251
[10] = test system: CCRF-CEM
[11] = test system: SNB-75
[12] = test system: NCI-H23
[13] = test system: K562
[14] = test system: A549
[15] = test system: SF-295
[16] = test system: HOP-62
[17] = test system: SW-620
[18] = test system: HT-29
[19] = test system: SK-MEL-2
[20] = test system: SF-539

Measured: GI50

CCC(C)C1NC(=O)C(NC(=O)C(CC(C)C)N(C)C(=O)[C@@H]2CC(O)CN2)C(C)OC(=O)[C@H](Cc2ccc(OC)cc2)N(C)C(=O)[C@@H]2CCCN2C(=O)[C@H](CC(C)C)NC(=O)C(C)C(=O)[C@H](C(C)C)OC(=O)CC1O (stereo not given in full) (H-[X10][ξNMeL][ξT][X11]LP[NMeY](Me); ester 3-C)
active: [1] 5.94 nM | [2] 11.4 nM | [3] 3.36 nM | [4] 11.5 nM | [5] 38.2 nM | [6] 3.11 nM | [7] 8.2 nM | [8] 4.88 nM | [9] 1.75 nM | [10] 2.33 nM | [11] 10.6 nM | [12] 10 nM | [13] 3.94 nM | [14] 22.8 nM | [15] 11.3 nM | [16] 9.31 nM | [17] 10.8 nM | [18] 4.45 nM | [19] 3.99 nM | [20] 1.57 nM
